The assay can be described thus: Food/water intake and body weight in 24-hour food-deprived rats, IP administration. It counts as in vivo, rat. Conditions: for body weight gain: vehicle 20 g. How it is done: An in vivo assessment of GPR6 inverse agonist was accomplished by determining the effects of ARE112 on food intake after food deprivation in rats. Food deprivation was used to induce higher than normal eating behavior (e.g., controlvehicle-treated animals were hyperphagic).
The animals (male Sprague-Dawley rats were used for the following experiments) were food deprived for 24 hr, and then injected intraperitoneally (IP) with 0, 6.75, 13.5, 27 and 54 mg/kg of compound ARE112. After 30 min, rats were introduced to standard rat chow pellets and observed thereafter for a period of 6.5 hours post-injection.

On to `O=C(N=C1SSC2=NCCN21)c1cccs1` [ARE112, N-(5,6-dihydro-3H-imidazo[2,1-c]-1,2,4-dithiazol-3-ylidene)-thiophen-2-carboxamide], for which the body weight gain reads like this: (13.5 mg/kg IP) 11 g; (27 mg/kg IP) “no weight gain”; (54 mg/kg IP) “no weight gain”. Also, the “decrease in water intake” value (54 mg/kg IP) is reported as 5 fold. Besides, the “food consumed (cumulative food intake)” value was determined as 3 g (54 mg/kg IP, 1.5 hours after injection, vehicle about 6 grams) and 4 g (54 mg/kg IP, 6.5 hours post-injection, vehicle up to 14 g).
